# Patent publication US12655111B2, “Phenazine-based compounds” (CMBLU Energy AG, priority 2020, dated 2026)
# Experiment: Redox flow battery cell test (flow-through laboratory cell), galvanostatic charge/discharge cycling with phenazine anolyte and ferrocyanide catholyte
# Type: physicochemical
# Details: range: (i) upper charging value minus initial discharging value, (ii) initial charging value minus ultimate discharging value; from Table 1 (for II 0.87M)
# Source text: FT-Cells (“Flow Through”):
# For electrochemical characterization, a small laboratory cell was used. A graphite felt (with an area of 6 cm^2, 6 mm in thickness, supplier: SGL Sigracell GFA 6EA) in combination with a bipolar plate (4.1 cm×4.1 cm, SGL Sigracell TF6) was employed as both the positive and negative electrode. A cation exchange membrane (630K or 620PE, supplier: fumatech) was used to separate the positive and negative electrolytes. The membrane was conditioned in 0.5 M Base (KOH/NaOH=50 mol %/50 mol %) for at least 150 h prior to each test. An anolyte volume of 12 mL was used for every experiment while the pH of the anolyte solution is adjusted using a 1:1 mixture of KOH/NaOH or solely KOH. The catholyte compositions are listed in table 1 and the catholyte was always employed in at least 1.05 fold stoichiometric excess in order to obtain charge limitation solely due to the phenazine electrolyte (see table 1). The catholyte volume for (IV) is 60 mL (0.4 M KOH; 0.4 M NaOH), for (III) 30 mL (0.2 M KOH and 0.2 M NaOH), and for (I) 20 mL (0.3 M KOH and 0.3 M NaOH). Both electrolytes were pumped by peristaltic pumps (Drifton BT100-1L, Cole Parmer Ismatec MCP and BVP Process IP 65) at a rate of 24 mL/min to the corresponding electrodes, respectively. The electrolyte reservoirs were purged with N2 gas for 1 h before start of charging and the inert atmosphere was maintained during the course of the experiments.
# Electrochemical testing was performed on a BaSyTec (BaSyTec GmbH, 89176 Asselfingen, Germany) or a Bio-Logic (Bio-Logic Science Instruments, Seyssinet-Pariset 38170, France) battery test system. For galvanostatic cycling, the cell was charged at a current density of […] and discharged at the same current density with the in table 1 listed voltage cut-offs. […]
row,difference in plateaus [V],SMILES
1,0.29-0.32 V,"O=S(=O)(O)c1ccc2nc3cc(O)c(O)cc3nc2c1 [DHPS, 7,8-Dihydroxyphenazine-2-sulfonic acid, reference compound]"
2,0.20-0.25 V,"CN(CCO)c1cc2nc3ccc(S(=O)(=O)O)cc3nc2cc1O [IV, 7-[(2-hydroxyethyl)(methyl)amino]-8-hydroxyphenazine-2-sulfonic acid]"
3,0.15-0.16 V,"CN(C)c1cc2nc3ccc(S(=O)(=O)O)cc3nc2cc1O [I, 7-(dimethylamino)-8-hydroxyphenazine-2-sulfonic acid]"
